In patent publication US4251658A, “3-(1-Pyrazolyl)-pyridazine derivatives” (Richter Gedeon Vegyeszeti Gyar Rt., priority 1977, dated 1981):

Tests used:
[1] = biological target: prostaglandin-A isomerase (PGAI); assay: Prostaglandin-A isomerase (PGAI) inhibiting action, PGAI preparation from the blood-plasma of pigs; format: biochemical; details: read-out: I50% inhibiting levels in final concentrations, PGAI
Text: (§1) The I50%, i.e. the index of inhibition is defined as the concentration of the substance inhibiting to 50% the function of the corresponding enzyme.

[2] = biological target: T1, prostaglandin dehydrogenase (PGDH) (Sus scrofa, UniProt A0ACM8QJV0); assay: Prostaglandin dehydrogenase (PGDH) inhibiting action, PGDH preparation from pig-lung; format: biochemical; details: read-out: I50% inhibiting levels in final concentrations, PGDH
T1 construct: PGDH preparation from pig-lung; from tissue; host or cells: pig lung
T1 sequence (A0ACM8QJV0 1-266): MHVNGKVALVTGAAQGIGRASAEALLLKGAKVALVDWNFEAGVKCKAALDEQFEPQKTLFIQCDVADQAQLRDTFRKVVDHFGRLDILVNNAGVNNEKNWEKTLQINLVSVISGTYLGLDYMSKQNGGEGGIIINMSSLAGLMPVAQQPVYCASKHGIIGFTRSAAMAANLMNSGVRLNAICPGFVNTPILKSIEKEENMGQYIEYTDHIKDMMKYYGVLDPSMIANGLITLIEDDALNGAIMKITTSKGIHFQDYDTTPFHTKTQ
Text: as §1

in vivo = details: mouse, mice, oral, read-out: Acute oral toxicity on mice LD50
[3] = Hypotensive action in narcotized cats; format: in vivo; details: pentobarbital narcosis
Protocol: The substances were administered in doses of 5, 2.5 and 1 mg./kg., respectively, and Hydralazine (1-hydrazinophthalazine hydrochloride) was used as reference compound.

[4] = Systolic blood pressure in the caudal artery of spontaneously hypertensive (Wistar-Okamoto) rats, oral treatment; format: in vivo; details: for decrease in systolic blood pressure: oral

| IC50 [1] | SMILES | LD50 (in vivo) | Decrease in blood pressure in Hgmm by 1 mg./kg. [3] | further results |
| --- | --- | --- | --- | --- |
| 100 µM | CCOC(=O)c1cnn(-c2ccc(NC3CCCCC3)nn2)c1N [Example 5, 3-Cyclohexylamino-A] | – | – | – |
| 50 µM | CCOC(=O)c1cnn(-c2ccc(NCc3ccco3)nn2)c1N [Example 6, 3-Furfurylamino-A] | – | – | IC50 [2]: 55 µM |
| – | CCOC(=O)c1cnn(-c2ccc(NCc3ccccc3)nn2)c1N [Example 7, 3-Benzylamino-A] | 1000 mg/kg | -15 Hgmm | – |
| 44 µM | CCOC(=O)c1cnn(-c2ccc(NCCN(CC)CC)nn2)c1N [Example 11, 3-(2-Diethylaminoethylamino)-A] | – | – | – |
| 75 µM | CCOC(=O)c1cnn(-c2ccc(NCc3ccccn3)nn2)c1N [Example 16, 3-(2Pyridylmethylamino)-A] | – | – | IC50 [2]: 150 µM |
| 25 µM | CCOC(=O)c1cnn(-c2ccc(NCc3cccnc3)nn2)c1N [Example 17, 3-(3-Pyrdiylmethylamino)-A] | – | – | IC50 [2]: 200 µM |
| 36 µM | CCOC(=O)c1cnn(-c2ccc(NCc3ccncc3)nn2)c1N [Example 18, 3-(4-Pyridylmethylamino)-A] | – | – | – |
| 180 µM | CCOC(=O)c1cnn(-c2ccc(NC(C)c3ccccc3)nn2)c1N (centres unmarked) [Example 20, 3-(1-Phenylethylamino)-A] | – | – | – |
| – | CN(N)c1ccc(-n2ncc(C#N)c2N)nn1 [Example 30, 3-(1-methylhydrazino)-6-(4-cyano-5-amino-1-pyrazolyl)-pyridazine] | 200 mg/kg | -40 Hgmm | tachycardia ([4]; against Hydralazine): does not cause any significant tachycardia; decrease in systolic blood pressure ([4]; 20 mg./kg., after 2 hours): 31%; decrease in systolic blood pressure ([4]; 20 mg./kg., after 5 hours): 16%; decrease in systolic blood pressure ([4]; 20 mg./kg., after 24 hours): 15% |
| – | NNC(=O)c1cnn(-c2ccc(N(CCO)CCO)nn2)c1N [Example 31, 3-[bis(2-Hydroxyethyl)-amino]-6-(4-carbazoyl-5-amino-1-pyrazolyl)-pyridazin] | 250 mg/kg | -10 Hgmm | – |
| – | NNC(=O)c1cnn(-c2cccnn2)c1N [Example 32] | 200 mg/kg | -10 Hgmm | – |
| – | COc1ccc(CCNc2ccc(-n3ncc(C(=O)NN)c3N)nn2)cc1OC [Example 33, 3-(3,4-Dimethoxyphenylethyl-amino)-B] | ~150 mg/kg | -10 Hgmm | – |

| SMILES | IC50 [1] | LD50 (in vivo) | Decrease in blood pressure in Hgmm by 1 mg./kg. [3] | further results |
| --- | --- | --- | --- | --- |
| Cl.NNc1nncc2ccccc12 [Hydralazine, 1-hydrazinophthalazine hydrochloride, reference compound] | 90 µM | – | -40 Hgmm | decrease in systolic blood pressure ([4]; 10 mg./kg. (reference), after 2 hours): 21%; decrease in systolic blood pressure ([4]; 10 mg./kg. (reference), after 5 hours): 22%; decrease in systolic blood pressure ([4]; 10 mg./kg. (reference), after 24 hours): 15% |
